The results in this text go back to patent US20190077774A1, “PEROXISOME PROLIFERATOR-ACTIVATED RECEPTOR AGONISTS” (City of Hope, priority 2017, published 2019).

Each structure is given as a SMILES string.

Format in all cases: in vivo
Data set [1] deals with PPARα target genes in the liver. Briefly: Liver gene expression of PPARα targets in treated mice (RT-qPCR). The settings on record: for Cyp4A3 expression: chronic treatment (FIG. 13); for ACADM expression: time course (FIG. 18). The source says: FIG. 6. […] Data in same order as triglyceride suppression (FIG. 5). apo CIII and LPL expression inversely correlate with triglyceride suppression for many, but not all, compounds. ACOX1 and Cyp4A3 expression correlate with triglyceride suppression for many, but not all, compounds.
The following oligonucleotide primers were used to amplify insertion sequences: for PPARα, FW-5′-[…]-3′ (SEQ ID NO:1) and Rev-5′-[…]-3′ (SEQ ID NO:2); for RXRα, FW-5′ […]-3′ (SEQ ID NO:3) and Rev-5′-[…]-3′ (SEQ ID NO:4). It has been well established that PPARα agonists fibrates reduce plasma triglycerides largely by inducing hepatic PPARα-mediated transcription of key proteins in hepatic long-chain fatty acid […], such as CPT1 (carnitine palmitoyltransferase-1). DY121 promoted the expression of PPARα, CPT1, and LPL involved in free fatty acid β-oxidation. The mRNA expressions of the PPARα-regulated genes CPT-Ia and ACADM were measured by real-time quantitative-PCR (RT-qPCR). […] A structural specificity of DY121 may be responsible for this regulation. PPARα is predominantly expressed in liver. PPARα modulates fatty acid catabolism in the liver. We next measured the mRNA expression of PPARα target genes in the liver. PPARα agonists exert their actions and attributed to the activation of PPARα which in turn effects an increase in LPL (lipoprotein lipase) gene expression and transrepression of apoC-III (apolipoprotein C-III). Activation of PPARα by its modulators can increase PPARα levels and activate PPARα pathways, leading to increased fatty-acid oxidation and reduction of oxidative stress. DY121 and its analogs induced the expression of PPARα-regulated genes involved in lipid, glucose, and cholesterol metabolism, such as ACOX1 (acyl-CoA oxidase) and Cyp4A3 (cytochrome P450 gene subfamily). Members of the CYP4A gene subfamily catalyze the oxygenation of biologically important fatty acids.
Next, we would like to investigate the therapeutic potential of DY121 to see if it could be candidate for treating NAFLD/NASH. Note that the pathogenesis of NASH has not yet been fully elucidated so far; however, the ‘two-hit’ theory is widely accepted. The first hit is the accumulation of fatty acids in the liver to cause steatosis. […] The newly produced PPARα agonist DY121 and its analogs, as well as WY100=WY14643 and GW3 (GW7647), were evaluated in C57Bl/6J female mice for their ability to alter serum triglyceride, liver gene expression, and glucose. Fibric acid derivatives (100 mg/kg/day) was used as a control, WY100 (WY14, 643, 100 mg/kg/day), GW3 (GW7647-positive control, 3 mg/kg/day), DY121 (˜3 mg/kg/day), respectively. […]
On the technique in general: Real-time PCR tracks product formation cycle by cycle.

Data set [2] is described as follows: Blood glucose in treated mice. The settings on record: after 4 days (FIG. 16). The source says: FIG. 16. Enhanced PPARα expression and/or activity (particularly in concert with PGC-1α) is expected to increase blood glucose by upregulating gluconeogenic enzymes like PEPCK.
(§1) Next, we would like to investigate the therapeutic potential of DY121 to see if it could be candidate for treating NAFLD/NASH. Note that the pathogenesis of NASH has not yet been fully elucidated so far; however, the ‘two-hit’ theory is widely accepted. The first hit is the accumulation of fatty acids in the liver to cause steatosis. […] The newly produced PPARα agonist DY121 and its analogs, as well as WY100=WY14643 and GW3 (GW7647), were evaluated in C57Bl/6J female mice for their ability to alter serum triglyceride, liver gene expression, and glucose. Fibric acid derivatives (100 mg/kg/day) was used as a control, WY100 (WY14, 643, 100 mg/kg/day), GW3 (GW7647-positive control, 3 mg/kg/day), DY121 (˜3 mg/kg/day), respectively. DY series compounds and controls administered once to C57Bl/6J female mice at 8 weeks of age. Mice were treated at 3 mg/kg for all compounds except WY14643 (100 mg/kg).

The nature of data set [3]: Body weight and food intake of treated mice. As to conditions: time course over 7 days (FIG. 9). How it is done: as §1
A further data set relates to C57Bl/6J female mice. Briefly: Serum triglyceride and lipid effects in C57Bl/6J female mice. As to conditions: 7 day period (FIG. 10).

Consider `CC(C)(Sc1ccc(CCN(CCCCC2CCCCC2)C(=O)NC2CCCCC2)cc1)C(=O)O` [GW7647, reference compound], for which the “liver CPT-Ia expression” value in data set [1] (chronic (>3 d) treatment (FIG. 17)) was “upregulated”. The Cyp4A3 expression entry in data set [1] (liver) is “consistently”. The ACADM expression entry in data set [1] is given as “upregulates”. Besides, the glucose result in data set [2] was “increased after 4 days”.
As to `Cc1cccc(Nc2cc(Cl)nc(SCC(=O)O)n2)c1C` [WY14643, reference compound], the weight result in data set [3] is given as “caused acute weight loss”. Moreover, the “triglycerides, chronic treatment” value in the data set on C57Bl/6J female mice was “suppressed triglycerides over the entire 7 day period”. Also, the Cyp4A3 expression result in data set [1] (liver) was “most greatly”. Further, in data set [1] (liver, chronic treatment up to 7 days (FIG. 11)), the apoCIII expression entry is given as “suppressed apoCIII only after 7 days treatment”. For the same compound, the ACADM expression result in data set [1] is reported as “upregulates”. Also, in data set [2], the glucose entry is “increased after 4 days”.
